Source: the RepoRT retention time repository (doi:10.1016/j.chroma.2012.12.030)

Assay: RP, Waters ACQUITY UPLC BEH C18, 100 × 2.1 mm, 1.7 µm, 60 °C, 0.3 mL/min, estimated dead time 0.73 min; A: water + 0.01% formic acid; B: methanol + 0.01% formic acid; gradient (min/%B) 0/10 14/90 16/90
Conditions: stereoisomer not certain

Row | SMILES | LC retention time [min]
1 | CCn1cc(C(=O)O)c(=O)c2ccc(C)nc21 | 7.1
2 | Cc1nnc(N=S(=O)(O)c2ccc(N)cc2)s1 | 3.19
3 | CCCC1CC(C(=O)NC(C(C)O)C2OC(SC)C(O)C(O)C2O)N(C)C1 (stereo unspecified) | 3.13
4 | C#CC1(O)CCC2C3CCc4cc(O)ccc4C3CCC21C (stereo unspecified) | 10.1
5 | CC12CCC3c4ccc(OS(=O)(=O)O)cc4CCC3C1CCC2O (stereo unspecified) | 10.4
6 | CCC1OC(=O)C(C)C(OC2CC(C)(OC)C(O)C(C)O2)C(C)C(OC2OC(C)CC(N(C)C)C2O)C(C)(O)CC(C)C(=NOCOCCOC)C(C)C(O)C1(C)O (stereo unspecified) | 9.99
7 | CCCCC(=O)N(Cc1ccc(-c2ccccc2-c2nn[nH]n2)cc1)C(C(=O)O)C(C)C (stereo unspecified) | 10.6
8 | CCCOC(=O)c1ccc(O)cc1 | 8.97
9 | COc1ccc(C(=O)c2ccccc2)c(O)c1 | 11.1
10 | CCCCC1=NC2(CCCC2)C(=O)N1Cc1ccc(-c2ccccc2-c2nn[nH]n2)cc1 | 10.3
11 | CCC(C)C(=O)OC1CC(O)C=C2C=CC(C)C(CCC(O)CC(O)CC(=O)O)C21 (stereo unspecified) | 9.27
12 | CCCCC(C)C(OC(=O)CC(CC(=O)O)C(=O)O)C(CC(C)CC(O)CCCCC(O)CC(O)C(C)N)OC(=O)CC(CC(=O)O)C(=O)O (stereo unspecified) | 9.48
13 | CC(C)c1ccc(NC(=O)N(C)C)cc1 | 8.83
14 | COc1nc(N)nc(NC(C)(C)C)n1 | 6.25
15 | CNC(C)Cc1ccccc1 (stereo unspecified) | 3.05
16 | CC(=O)OC1(C(C)=O)CCC2C3CC(C)C4=CC(=O)CCC4(C)C3CCC21C (stereo unspecified) | 11.7
17 | CCn1cc(C(=O)O)c(=O)c2cc3c(cc21)OCO3 | 5.67
18 | Cc1onc(-c2ccccc2)c1C(=O)NC1C(=O)N2C1SC(C)(C)C2C(=O)O (stereo unspecified) | 8.19
19 | CNC(=O)Oc1cccc2c1OC(C)(C)C2 | 7.48
20 | CCN(CC)c1nc(C)cc(OP(=S)(OC)OC)n1 | 12
21 | CCCCCc1cc(O)c2c(c1)OC(C)(C)C1CCC(C(=O)O)=CC21 (stereo unspecified) | 13.9
22 | Cc1nc(N(C)C)nc(OC(=O)N(C)C)c1C | 7.79
23 | Cc1cc2c(s1)Nc1ccccc1N=C2N1CCN(C)CC1 | 3.44
24 | COC(=O)C1C(OC(=O)c2ccccc2)CC2CCC1N2C (stereo unspecified) | 4.66
25 | COc1ccc(C(CN(C)C)C2(O)CCCCC2)cc1 (stereo unspecified) | 6.34
26 | C=C1CC2C3C=C(C)C4=CC(=O)CCC4(C)C3CCC2(C)C1(OC(C)=O)C(C)=O (stereo unspecified) | 11.8

Row | SMILES | LC retention time [min]
27 | CCNc1nc(NC(C)C)[nH]c(=O)n1 | 3.93
28 | COC(=O)Nc1nc2ccccc2[nH]1 | 3.89
29 | CC(COc1ccc(Oc2ccccc2)cc1)Oc1ccccn1 (stereo unspecified) | 13.4
30 | CCC1OC(=O)C(C)C(OC2CC(C)(OC)C(O)C(C)O2)C(C)C(OC2OC(C)CC(N(C)C)C2O)C(C)(O)CC(C)C(=O)C(C)C(O)C1(C)O (stereo unspecified) | 8.5
31 | CC(=O)O[Si](CCCC(O)COC(=O)c1ccc(O)cc1)(OC(C)=O)c1ccccc1 (stereo unspecified) | 5.92
32 | NC(=O)N1c2ccccc2C=Cc2ccccc21 | 8.1
33 | COc1cc2c(c3oc(=O)c4c(c13)CCC4=O)C1CCOC1O2 (stereo unspecified) | 6.76
34 | CCC(=C(CC)c1ccc(O)cc1)c1ccc(O)cc1 | 10.3
35 | COc1cc2c(c3oc(=O)c4c(c13)CCOC4=O)C1C=COC1O2 (stereo unspecified) | 6.35
36 | COc1cc2c(c3oc(=O)c4c(c13)CCC4=O)C1(O)C=COC1O2 (stereo unspecified) | 6.04
37 | O=C(O)c1ccccc1O | 4.8
38 | CC1(C)SC2C(NC(=O)Cc3ccccc3)C(=O)N2C1C(=O)O (stereo unspecified) | 7.08
39 | COC=C(C(=O)OC)c1ccccc1Oc1cc(Oc2ccccc2C#N)ncn1 | 10
40 | CC1CCCC(=O)CCCC=Cc2cc(O)cc(O)c2C(=O)O1 (stereo unspecified) | 10.3
41 | CC1=CC2OC3C(O)CC(C)(C34CO4)C2(CO)C(O)C1=O (stereo unspecified) | 2.83
42 | CCNc1nc(NC(C)(C)C)nc(OC)n1 | 9.07
43 | Cc1cc(NS(=O)(=O)c2ccc(N)cc2)no1 | 3.91
44 | CCn1cc(C(=O)O)c(=O)c2cnc(N3CCNCC3)nc21 | 2.7
45 | CC(=O)Nc1ccc(O)cc1 | 2.05
46 | O=C1OCCN1N=Cc1ccc([N+](=O)[O-])o1 | 2.96
47 | CC(N)Cc1ccc2c(c1)OCO2 (stereo unspecified) | 2.97
48 | CC12CCC3c4ccc(O)cc4CCC3C1CCC2=O (stereo unspecified) | 9.99
49 | CCOP(=S)(OCC)Oc1ccc(=O)n(-c2ccccc2)n1 | 10.7
50 | O=C1OC(CN2CCOCC2)CN1N=Cc1ccc([N+](=O)[O-])o1 (stereo unspecified) | 2.64
51 | Cc1cc(C2CC2)nc(Nc2ccccc2)n1 | 11.4
52 | CC12CCC3c4ccc(OS(=O)(=O)O)cc4CCC3C1CCC2=O (stereo unspecified) | 10.6

Row | SMILES | LC retention time [min]
53 | COP(=S)(OC)SCn1nnc2ccccc2c1=O | 11.5
54 | CCNC(C)Cc1ccc2c(c1)OCO2 (stereo unspecified) | 3.48
55 | COc1ccc2cc(C(C)C(=O)O)ccc2c1 (stereo unspecified) | 9.74
56 | CC(N)Cc1ccccc1 (stereo unspecified) | 2.8
57 | CC(=O)OC1(C(C)=O)CCC2C3C=C(C)C4=CC(=O)CCC4(C)C3CCC21C (stereo unspecified) | 11.5
58 | CNC(=O)Oc1cc(C)c(SC)c(C)c1 | 9.95
59 | CCOP(=S)(OCC)Oc1cc(C)nc(C(C)C)n1 | 11.9
60 | CNC(C)C(=O)c1ccccc1 (stereo unspecified) | 2.26
61 | CCSC(=O)N1CCCCCC1 | 10.4
62 | COc1cc(Cc2cnc(N)nc2N)cc(OC)c1OC | 3.15
63 | CCC1OC(=O)C(C)C(OC2CC(C)(OC)C(O)C(C)O2)C(C)C(OC2OC(C)CC(N(C)C)C2O)C(C)(O)CC(C)CN(C)C(C)C(O)C1(C)O (stereo unspecified) | 6.2
64 | CNC(=O)ON=C(C)SC | 3.09
65 | CC(=O)OCC12CC(OC(=O)CC(C)C)C(C)=CC1OC1C(O)C(O)C2(C)C12CO2 (stereo unspecified) | 9.07
66 | COc1cc2c(c3oc(=O)c4c(c13)CCOC4=O)C1CCOC1O2 (stereo unspecified) | 5.93
67 | CCOC(=O)CC(SP(=S)(OC)OC)C(=O)OCC (stereo unspecified) | 11
68 | CCC(C)(C)C(=O)OC1CC(C)C=C2C=CC(C)C(CCC3CC(O)CC(=O)O3)C21 (stereo unspecified) | 14.2
69 | COc1ccc2nc(S(=O)Cc3ncc(C)c(OC)c3C)[nH]c2c1 (stereo unspecified) | 7.55
70 | CCCCC(C)C(OC(=O)CC(CC(=O)O)C(=O)O)C(CC(C)CCCCCCC(O)CC(O)C(C)N)OC(=O)CC(CC(=O)O)C(=O)O (stereo unspecified) | 11
71 | COc1nn(CSP(=S)(OC)OC)c(=O)s1 | 9.06
72 | COCC(=O)N(c1c(C)cccc1C)C(C)C(=O)OC (stereo unspecified) | 9.09
73 | O=C(c1ccc(O)cc1O)c1ccc(O)cc1O | 6.4
74 | CNC(=O)Oc1cccc2ccccc12 | 7.81
75 | c1ccc2[nH]c(-c3cscn3)nc2c1 | 4.8
76 | CC(C(=O)O)c1cccc(C(=O)c2ccccc2)c1 (stereo unspecified) | 9.5
77 | CCCCOC(=O)c1ccc(O)cc1 | 10.3
78 | Cc1c(N)c(=O)n(-c2ccccc2)n1C | 3.48

Row | SMILES | LC retention time [min]
79 | CNC(C)Cc1ccc2c(c1)OCO2 (stereo unspecified) | 3.02
80 | CC(C)N1C(=O)c2ccccc2NS1(=O)=O | 6.66
81 | CC(=O)OCC12CC(OC(=O)CC(C)C)C(C)=CC1OC1C(O)C(OC(C)=O)C2(C)C12CO2 (stereo unspecified) | 10
82 | CC12CCC3c4ccc(O)cc4CCC3C1CC(O)C2O (stereo unspecified) | 6.96
83 | CCNc1nc(NC(C)(C)C)[nH]c(=O)n1 | 5.25
84 | CCOC(=O)c1ccc(O)cc1 | 7.54
85 | CN1C2CCC1C(C(=O)O)C(OC(=O)c1ccccc1)C2 (stereo unspecified) | 4.08
86 | Cc1ccc(C)c(OCCCC(C)(C)C(=O)O)c1 | 12.8
87 | COc1cc(O)c(C(=O)c2ccccc2)cc1S(=O)(=O)O | 6.4
88 | CCC1OC(=O)CC(O)C(C)C(OC2OC(C)C(OC3CC(C)(O)C(O)C(C)O3)C(N(C)C)C2O)C(CC=O)CC(C)C(=O)C=CC(C)=CC1COC1OC(C)C(O)C(OC)C1OC (stereo unspecified) | 8.84
89 | Cc1cc(C)nc(NS(=O)(=O)c2ccc(N)cc2)n1 | 3.59
90 | Nc1ccc(S(=O)(=O)Nc2ncccn2)cc1 | 2.09
91 | COc1cc2c(c3oc(=O)c4c(c13)CCC4=O)C1C=COC1O2 (stereo unspecified) | 7.15
92 | CCNc1nc(NC(C)(C)C)nc(SC)n1 | 10.6
93 | CNC(=O)CSP(=S)(OC)OC | 4.63
94 | COC(=O)C1C2CCC(CC1OC(=O)c1ccccc1)N2 (stereo unspecified) | 5.14
95 | CCOC(=O)C(CCc1ccccc1)NC(C)C(=O)N1CCCC1C(=O)O (stereo unspecified) | 7.47
96 | CCC1OC(=O)C(C)C(OC2CC(C)(OC)C(O)C(C)O2)C(C)C(OC2OC(C)CC(N(C)C)C2O)C(C)(OC)CC(C)C(=O)C(C)C(O)C1(C)O (stereo unspecified) | 9.78
97 | CC(C)N1C(=O)N(c2ccccc2)CSC1=NC(C)(C)C | 13.1
98 | CCNc1nc(NCC)[nH]c(=O)n1 | 2.83
99 | CCOC(=O)C1C(OC(=O)c2ccccc2)CC2CCC1N2C (stereo unspecified) | 5.78
100 | O=C(OC1CC2CCC([NH2+]2)C1C(=O)[O-])c1ccccc1 (stereo unspecified) | 4.3
101 | CC(C)Cc1ccc(C(C)C(=O)O)cc1 (stereo unspecified) | 11.8
